The source of these data is patent US8119624B2, “Fused phenyl amido heterocyclic compounds” (Pfizer Inc., priority 2006, dated 2012).

Like-named read-outs stand apart in the source and are kept apart here.

The target in the test is T1, Full-length glucokinase (beta cell isoform) (Homo sapiens, UniProt P35557).
T1 construct: Full-length glucokinase (beta cell isoform) was His-tagged at N-terminus; His tag (N); made in house
T1 sequence (P35557 1-465): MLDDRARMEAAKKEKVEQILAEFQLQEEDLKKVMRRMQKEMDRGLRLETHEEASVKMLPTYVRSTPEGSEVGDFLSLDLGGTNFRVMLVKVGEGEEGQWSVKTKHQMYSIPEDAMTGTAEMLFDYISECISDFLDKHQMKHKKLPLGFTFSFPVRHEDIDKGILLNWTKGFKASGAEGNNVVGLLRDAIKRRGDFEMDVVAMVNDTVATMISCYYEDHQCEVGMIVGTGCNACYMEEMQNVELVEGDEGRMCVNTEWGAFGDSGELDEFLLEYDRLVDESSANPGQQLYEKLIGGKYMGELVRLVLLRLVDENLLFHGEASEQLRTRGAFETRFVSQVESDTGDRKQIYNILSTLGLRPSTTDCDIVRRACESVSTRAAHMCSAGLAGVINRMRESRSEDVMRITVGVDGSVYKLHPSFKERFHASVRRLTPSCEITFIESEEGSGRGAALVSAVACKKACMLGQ
Put plainly: Glucokinase biochemical assay (PK/LDH-coupled, NADH depletion at 340 nm): % activation, EC50, % max activation. Particulars: 5 mM glucose; for EC50: read-out: EC50; for % Max Activation / Emax: fitted maximum activation; for Emax: read-out: % Max Activation; for activation at 10 µM: read-out: % Activation at 10 uM. The protocol: Full-length glucokinase (beta cell isoform) was His-tagged at N-terminus and purified by a Ni column followed by size exclusion chromatography. Glucose was obtained from Calbiochem, and other reagents were from Sigma.
All assays were performed in a Corning 96-well plate using Spectramax PLUS spectrophotometer (Molecular Devices) at room temperature. The final assay volume was 100 uL. The buffer conditions used in this assay were as follows: 50 mM HEPES, 5 mM glucose, 1 mM ATP, 2 mM MgCl2, 0.7mM NADH, 2 mM DTT, 1 Unit/mL PK/LDH, 0.2 mM phosphoenolpyruvate, 25 mM KCl. Tested compound in DMSO solution was added to the buffer and mixed well by a plate shaker for 1 minute. The final concentration of DMSO introduced into the assay was 1%.
Glucokinase was added to the buffer mixture to initiate the reaction in the presence and absence of compound. Reaction was monitored by absorbance at 340nm due to the depletion of NADH. The initial reaction velocity was measured by the slope of a linear time course of 200-900 sec.
The percentage of activation was calculated by the following equation: % Activation=(Va/Vo−1)×100;
wherein each of Va and Vo is defined as the initial reaction velocity in the presence and absence of the tested compound, respectively.
The GK activities were measured as a function of compound concentrations.

[1] abbreviates: 10 uM compound, % Activation=(Va/Vo−1)×100.
[2] abbreviates: compound at 10 uM, 1 mM ATP, room temperature.

For `CC1Cc2c(Oc3ccc(S(C)(=O)=O)cc3)cc(C(=O)Nc3ccn(C)n3)cc2O1` (single isomer, unassigned; (+)) [Example 13, (+)4-(4-Methanesulfonyl-phenoxy)-2-methyl-2,3-dihydro-benzofuran-6-carboxylic acid(1-methyl-1H-pyrazol-3-yl)-amide], the “% Max Activation” value is 196%. Also, the “% Activation at 10 uM” value under setting [1] is on record as 182%. In addition, the EC50 (GK activation) was 1800 nM.

As to `COCC1Cc2c(Oc3ccc(C(=O)N(C)C)c(F)c3)cc(C(=O)Nc3ccn(C)n3)cc2O1` (single isomer, unassigned; (+)) [Example 207, (+)-4-(4-Dimethylcarbamoyl-3-fluoro-phenoxy)-2-methoxymethyl-2,3-dihydro-benzofuran-6-carboxylic acid (1-methyl-1H-pyrazol-3-yl)-amide], the “% Max Activation” value came to 142%. The “% Activation at 10 uM” value under setting [1] worked out at 127%. The concentration for a half-maximal effect (EC50) (GK activation) came to 950 nM.

`COCC1Cc2c(Oc3ccc(C(=O)N4CCC4)cc3)cc(C(=O)Nc3ccn(C)n3)cc2O1` (single isomer, unassigned; (+)) [Example 210, (+)-4-[4-(Azetidine-1-carbonyl)-phenoxy]-2-methoxymethyl-2,3-dihydro-benzofuran-6-carboxylic acid (1-methyl-1H-pyrazol-3-yl)-amide]: the “% Max Activation” value worked out at 143%. Moreover, the “% Activation at 10 uM” value under setting [1] came out at 130%. Moreover, the EC50 (GK activation) came to 850 nM.

For the compound `COCC1Cc2c(Oc3ccc(C(=O)N(C)C)cc3)cc(C(=O)Nc3ccn(C)n3)cc2O1` (single isomer, unassigned; (+)) [Example 212, (+)-4-(4-Dimethylcarbamoyl-phenoxy)-2-methoxymethyl-2,3-dihydro-benzofuran-6-carboxylic acid (1-methyl-1H-pyrazol-3-yl)-amide], the “% Max Activation” value amounted to 144%. In addition, the “% Activation at 10 uM” value under setting [1] is given as 111%. For the same compound, where the note is “GK activation”, the EC50 is 2600 nM.

For `COCC1(C)Cc2c(Oc3ccc(C(=O)N4CCC4)c(F)c3)cc(C(=O)Nc3ccn(C)n3)cc2O1` (single isomer, unassigned; (+)) [Example 244, (+)-4-[4-(Azetidine-1-carbonyl)-3-fluoro-phenoxy]-2-methoxymethyl-2-methyl-2,3-dihydro-benzofuran-6-carboxylic acid (1-methyl-1H-pyrazol-3-yl)-amide], the “% Max Activation” value was determined as 234%. In addition, the “% Activation at 10 uM” value under setting [1] is 287%. For the same compound, the EC50 (GK activation) came to 210 nM.

Take `COCC1(C)Cc2c(Oc3ccc(S(=O)(=O)C4CC4)cc3)cc(C(=O)Nc3ccn(C)n3)cc2O1` (single isomer, unassigned; (+)) [Example 248, (+)-4-(4-Cyclopropanesulfonyl-phenoxy)-2-methoxymethyl-2-methyl-2,3-dihydro-benzofuran-6-carboxylic acid (1-methyl-1H-pyrazol-3-yl)-amide]: the “% Max Activation” value amounted to 225%. For the same compound, the “% Activation at 10 uM” value under setting [1] turned out to be 222%. For the same compound, the EC50 (GK activation) worked out at 490 nM.

For the compound `COCC1(C)Cc2c(Oc3ccc(S(=O)(=O)C4CC4)cc3)cc(C(=O)Nc3cnn(C)n3)cc2O1` (single isomer, unassigned; (+)) [Example 249, (+)-4-(4-Cyclopropanesulfonyl-phenoxy)-2-methoxymethyl-2-methyl-2,3-dihydro-benzofuran-6-carboxylic acid (2-methyl-2H-[1,2,3]triazol-4-yl)-amide], the Emax was 262%. In addition, the “% Activation at 10 uM” value under setting [1] came out at 276%. For the same compound, the EC50 (GK activation) stood at 86 nM.

`COCC1(C)Cc2c(Oc3ccc(S(=O)(=O)C4CC4)cc3)cc(C(=O)Nc3cnn(C)n3)cc2O1` (single isomer, unassigned; (+)) [Example 250, (+)-4-(4-Cyclopropanesulfonyl-phenoxy)-2-methoxymethyl-2-methyl-2,3-dihydro-benzofuran-6-carboxylic acid (2-methyl-2H-[1,2,3]triazol-4-yl)-amide]: the “% Max Activation” value was found to be 246%. In addition, the “% Activation at 10 uM” value under setting [1] is 227%. Where the note is “GK activation”, the EC50 was 420 nM.

Consider `Cc1ccc(NC(=O)c2cc(Oc3ccc(S(=O)(=O)C4CC4)c(F)c3)c3c(c2)OC(C)(CO)C3)nc1` (single isomer, unassigned; (+)) [Example 401, (+)-4-(4-Cyclopropanesulfonyl-3-fluoro-phenoxy)-2-hydroxymethyl-2-methyl-2,3-dihydro-benzofuran-6-carboxylic acid(5-methyl-pyridin-2-yl)-amide], for which the EC50 (1 mM ATP, room temperature) came to 290 nM. In addition, the activation at 10 µM under setting [2] was determined as 131%. Under “1 mM ATP”, the Emax was found to be 139%.

Regarding `CC1Cc2c(Oc3ccc(S(C)(=O)=O)cc3)cc(C(=O)Nc3ccn(C)n3)cc2O1` (single isomer, unassigned; (-)) [Example 12, (−)-4-(4-Methanesulfonyl-phenoxy)-2-methyl-2,3-dihydro-benzofuran-6-carboxylic acid(1-methyl-1H-pyrazol-3-yl)-amide], the “% Max Activation” value is given as 195%. Under setting [1], the “% Activation at 10 uM” value is recorded as 162%. For the same compound, for the setting “GK activation”, the EC50 was 3000 nM.

On to `COCC1Cc2c(Oc3ccc(C(=O)N(C)C)c(F)c3)cc(C(=O)Nc3ccn(C)n3)cc2O1` (single isomer, unassigned; (-)) [Example 206, (−)-4-(4-Dimethylcarbamoyl-3-fluoro-phenoxy)-2-methoxymethyl-2,3-dihydro-benzofuran-6-carboxylic acid (1-methyl-1H-pyrazol-3-yl)-amide], for which the “% Max Activation” value is given as 102%. For the same compound, the “% Activation at 10 uM” value under setting [1] worked out at 91.3%. Moreover, the EC50 (GK activation) came to 270 nM.

With `COCC1Cc2c(Oc3ccc(C(=O)N4CCC4)cc3)cc(C(=O)Nc3ccn(C)n3)cc2O1` (single isomer, unassigned; (-)) [Example 209, (−)-4-[4-(Azetidine-1-carbonyl)-phenoxy]-2-methoxymethyl-2,3-dihydro-benzofuran-6-carboxylic acid (1-methyl-1H-pyrazol-3-yl)-amide], the “% Max Activation” value came out at 96%. The “% Activation at 10 uM” value under setting [1] is recorded as 87%. Besides, the EC50 (GK activation) came to 380 nM.

Regarding `COCC1Cc2c(Oc3ccc(C(=O)N(C)C)cc3)cc(C(=O)Nc3ccn(C)n3)cc2O1` (single isomer, unassigned; (-)) [Example 213, (−)-4-(4-Dimethylcarbamoyl-phenoxy)-2-methoxymethyl-2,3-dihydro-benzofuran-6-carboxylic acid (1-methyl-1H-pyrazol-3-yl)-amide], the “% Max Activation” value amounted to 113%. Besides, the “% Activation at 10 uM” value under setting [1] is 83.1%. In addition, the EC50 (GK activation) worked out at 890 nM.

With `COCC1(C)Cc2c(Oc3ccc(C(=O)N4CCC4)c(F)c3)cc(C(=O)Nc3ccn(C)n3)cc2O1` (single isomer, unassigned; (-)) [Example 243, (−)-4-[4-(Azetidine-1-carbonyl)-3-fluoro-phenoxy]-2-methoxymethyl-2-methyl-2,3-dihydro-benzofuran-6-carboxylic acid (1-methyl-1H-pyrazol-3-yl)-amide], the Emax amounted to 218%. The activation at 10 µM under setting [1] came out at 275%. Under “GK activation”, the EC50 is 41 nM.

In the case of `COCC1(C)Cc2c(Oc3ccc(S(=O)(=O)C4CC4)cc3)cc(C(=O)Nc3ccn(C)n3)cc2O1` (single isomer, unassigned; (-)) [Example 247, (−)-4-(4-Cyclopropanesulfonyl-phenoxy)-2-methoxymethyl-2-methyl-2,3-dihydro-benzofuran-6-carboxylic acid (1-methyl-1H-pyrazol-3-yl)-amide], the “% Max Activation” value is listed as 254%. Also, the “% Activation at 10 uM” value under setting [1] is reported as 252%. Further, where the note is “GK activation”, the EC50 was 83 nM.

For the compound `Cc1ccc(NC(=O)c2cc(Oc3ccc(S(=O)(=O)C4CC4)c(F)c3)c3c(c2)OC(C)(CO)C3)nc1` (single isomer, unassigned; (-)) [Example 402, (−)-4-(4-Cyclopropanesulfonyl-3-fluoro-phenoxy)-2-hydroxymethyl-2-methyl-2,3-dihydro-benzofuran-6-carboxylic acid(5-methyl-pyridin-2-yl)-amide], the “% Activation at 10 uM” value under setting [2] is given as 19.9%.

In general, EC50 refers to the concentration that produces a half-maximal response.
